From patent US20240382600A1, “BIFUNCTIONAL DEGRADERS COMPRISING A TEAD BINDER” (Novartis AG, priority 2021, published 2024)
pIC50: −log10 of the molar value.

Assays:
[1] = system: YAP-dependent transcription in NCI-H2052 Tet-On shYAP_2371 pLenti6 MCAT_Luc cells; experiment: YAP reporter gene activity assay (MCAT-Luc), NCI-H2052; type: cell-based; conditions: Homo sapiens, 24 hrs
[2] = system: NCI-H2052 Tet-On shYAP_2371 pLenti6 MCAT_Luc cells; experiment: Proliferation assay (resazurin/AlamarBlue), NCI-H2052; type: cell-based; conditions: Homo sapiens; NCI-H2052, 72 hours
[3] = target: Avi-humanTEAD4^217-434 / Cy5 labeled humanYAP^60-100 (Homo sapiens (Human), UniProt Q15561); experiment: In-vitro biochemical TR-FRET assay (TEAD4/YAP); type: binding; conditions: 1 h at room temperature
[4] = system: MKN-45/Ubc-luc cells (unspecific inhibition of luciferase expression or activity); experiment: Reporter gene assay specificity control (Ubc-Luc), MKN-45; type: cell-based; conditions: Homo sapiens; MKN-45/Ubc-luc specificity control, 24 hrs
In short: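 MKN-45 cells stably carrying a ubiquitin C promoter–firefly luciferase construct, treated the day after seeding with eleven 2-fold compound dilutions (0.1% DMSO final) for 24 hrs at 37° C. Luminescence read 5 min after Steady Glo addition; cell-free background subtracted, as a control for nonspecific luciferase inhibition.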

[5] = system: SF268-MCAT_Luc_dox-i-shYAPLevy (Clone 13) cells; experiment: Proliferation assay (resazurin/AlamarBlue), SF268; type: cell-based; conditions: Homo sapiens, SF-268; SF268, 72 hours
MKN-45/Ubc-luc cells = experiment: Proliferation assay (resazurin/AlamarBlue), MKN-45; type: cell-based; conditions: Homo sapiens; MKN-45, 72 hours
In short: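 MKN-45 cells carrying constitutive Ubc-driven luciferase reporter, treated the day after seeding with eleven 2-fold dilutions (0.1% DMSO) for 72 h at 37 °C. Viability by resazurin, referenced to day-0 plate; GI50 from % growth (100 none, 0 stasis, −100 kill) and residual viability at top concentration.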

[6] = system: YAP-dependent transcription in SF268-MCAT_Luc_dox-i-shYAPLevy (Clone 13) cells; experiment: YAP reporter gene activity assay (MCAT-Luc), SF268; type: cell-based; conditions: Homo sapiens, SF-268; SF268 MCAT_Luc, 24 hrs
[7] = target: TEAD1-GFP in HEK293A cells (Homo sapiens (Human), UniProt P28347); experiment: TEAD1 protein abundance flow cytometry assay in HEK293A; type: cell-based; conditions: HEK293A TEAD1-GFP-CHYSEL-mCherry sensor cells, 24 h, GFP signal by flow cytometry
In short: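 HEK293A stably expressing bicistronic TEAD1-GFP-CHYSEL-mCherry treated 24 h at 37° C with 10-point 3-fold series from 10 μM (0.1% DMSO), duplicate. Median GFP of 2,500 single cells by flow cytometry, normalized to parental HEK293A (0%) and DMSO (100%); DC50 from concentration-response curves.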

Sequence of Avi-humanTEAD4^217-434 / Cy5 labeled humanYAP^60-100 (Q15561 217-434): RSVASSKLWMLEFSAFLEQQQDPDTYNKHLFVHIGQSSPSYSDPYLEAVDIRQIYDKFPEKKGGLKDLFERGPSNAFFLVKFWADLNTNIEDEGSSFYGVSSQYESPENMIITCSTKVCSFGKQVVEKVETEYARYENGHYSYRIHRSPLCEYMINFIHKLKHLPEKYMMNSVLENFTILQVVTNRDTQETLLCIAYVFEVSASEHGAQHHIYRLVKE
Sequence of TEAD1-GFP in HEK293A cells (P28347 whole entry): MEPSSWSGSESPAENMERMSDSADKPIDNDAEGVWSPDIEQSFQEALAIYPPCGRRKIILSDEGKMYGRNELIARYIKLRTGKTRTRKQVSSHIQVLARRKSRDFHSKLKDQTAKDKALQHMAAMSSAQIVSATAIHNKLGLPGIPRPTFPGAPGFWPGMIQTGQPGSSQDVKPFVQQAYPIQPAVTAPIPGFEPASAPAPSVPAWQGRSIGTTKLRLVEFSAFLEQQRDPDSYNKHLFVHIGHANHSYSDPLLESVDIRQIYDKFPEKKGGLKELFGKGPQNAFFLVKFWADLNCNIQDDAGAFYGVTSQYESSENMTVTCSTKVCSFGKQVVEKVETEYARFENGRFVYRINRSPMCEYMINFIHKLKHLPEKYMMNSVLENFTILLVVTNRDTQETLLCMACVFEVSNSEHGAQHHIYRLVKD

| SMILES | pIC50 [1] | GI50 [2] | pIC50 [3] | pIC50 [4] | GI50 [5] | GI50 (MKN-45/Ubc-luc cells) | pIC50 [6] | DC50 [7] |
| --- | --- | --- | --- | --- | --- | --- | --- | --- |
| COc1ccc(C(N)=O)c(-c2c(Cl)c(F)cc3c2[C@H](C)[C@@](CN[C@H]2CC[C@H](C(=O)N4CCC(CC5CCN(C(=O)c6ccc(Cl)c(N7CCC(=O)NC7=O)c6)CC5)CC4)CC2)(c2ccccc2)O3)c1F (atropisomer, axis not shown) [Example 24, 2-((2S,3S,4S)-5-chloro-2-((((1r,4S)-4-(4-((1-(4-chloro-3-(2,4-dioxotetrahydropyrimidin-1(2H)-yl)benzoyl)piperidin-4-yl)methyl)piperidine-1-carbonyl)cyclohexyl)amino)methyl)-6-fluoro-3-methyl-2-phenyl-2,3-dihydrobenzofuran-4-yl)-3-fluoro-4-methoxybenzamide] | 9.00 | 3.5 nM | 8.47 | < 5.70 | 6.2 nM | > 2000 nM | 9.70 | < 0.3 nM |
| COc1ccc(C(N)=O)c(-c2c(Cl)c(F)cc3c2[C@H](C)[C@@](CN[C@H]2CC[C@H](C(=O)N4CCC(CC5CCN(C(=O)COc6ccc(N7CCC(=O)NC7=O)cc6)CC5)CC4)CC2)(c2ccccc2)O3)c1F (atropisomer, axis not shown) [Example 25, 2-((2S,3S,4S)-5-chloro-2-((((1r,4S)-4-(4-((1-(2-(4-(2,4-dioxotetrahydropyrimidin-1(2H)-yl)phenoxy)acetyl)piperidin-4-yl)methyl)piperidine-1-carbonyl)cyclohexyl)amino)methyl)-6-fluoro-3-methyl-2-phenyl-2,3-dihydrobenzofuran-4-yl)-3-fluoro-4-methoxybenzamide] | 8.49 | 8.5 nM | 8.62 | < 5.70 | 22 nM | > 2000 nM | 9.27 | 0.5 nM |
| COc1ccc(C(N)=O)c(-c2c(Cl)c(F)cc3c2[C@H](C)[C@@](CN[C@H]2CC[C@H](C(=O)N4CCC(CC5CCN(C(=O)COc6ccc(N7CCC(=O)NC7=O)c(C)c6)CC5)CC4)CC2)(c2ccccc2)O3)c1F (atropisomer, axis not shown) [Example 26, 2-((2S,3S,4S)-5-chloro-2-((((1r,4S)-4-(4-((1-(2-(4-(2,4-dioxotetrahydropyrimidin-1(2H)-yl)-3-methylphenoxy)acetyl)piperidin-4-yl)methyl)piperidine-1-carbonyl)cyclohexyl)amino)methyl)-6-fluoro-3-methyl-2-phenyl-2,3-dihydrobenzofuran-4-yl)-3-fluoro-4-methoxybenzamide] | 8.89 | 2.5 nM | 8.40 | < 5.70 | 12 nM | > 2000 nM | 9.59 | 0.3 nM |
| COc1ccc(C(N)=O)c(-c2c(Cl)c(F)cc3c2[C@H](C)[C@@](CN[C@H]2CC[C@H](C(=O)N4CCC(OC5CCN(C(=O)COc6cc(-c7scnc7C)ccc6CNC(=O)[C@@H]6C[C@@H](O)CN6C(=O)[C@@H](NC(=O)C6(F)CC6)C(C)(C)C)CC5)CC4)CC2)(c2ccccc2)O3)c1F (atropisomer, axis not shown) [Example 38, (2S,4R)-N-(2-(2-(4-((1-((1S,4r)-4-((((2S,3S,4S)-4-(6-carbamoyl-2-fluoro-3-methoxyphenyl)-5-chloro-6-fluoro-3-methyl-2-phenyl-2,3-dihydrobenzofuran-2-yl)methyl)amino)cyclohexane-1-carbonyl)piperidin-4-yl)oxy)piperidin-1-yl)-2-oxoethoxy)-4-(4-methylthiazol-5-yl)benzyl)-1-((S)-2-(1-fluorocyclopropane-1-carboxamido)-3,3-dimethylbutanoyl)-4-hydroxypyrrolidine-2-carboxamide] | 8.40 | 22 nM | 8.15 | < 5.70 | 24 nM | > 2000 nM | 9.38 | 1 nM |
| COc1ccc(C(N)=O)c(-c2c(Cl)c(F)cc3c2[C@H](C)[C@@](CN[C@H]2CC[C@H](C(=O)N[C@H]4CC[C@H](NC(=O)COc5cc(-c6scnc6C)ccc5CNC(=O)[C@@H]5C[C@@H](O)CN5C(=O)[C@@H](NC(=O)C5(F)CC5)C(C)(C)C)CC4)CC2)(c2ccccc2)O3)c1F (atropisomer, axis not shown) [Example 39, (2S,4R)-N-(2-(2-(((1S,4S)-4-((1S,4R)-4-((((2S,3S,4S)-4-(6-carbamoyl-2-fluoro-3-methoxyphenyl)-5-chloro-6-fluoro-3-methyl-2-phenyl-2,3-dihydrobenzofuran-2-yl)methyl)amino)cyclohexane-1-carboxamido)cyclohexyl)amino)-2-oxoethoxy)-4-(4-methylthiazol-5-yl)benzyl)-1-((S)-2-(1-fluorocyclopropane-1-carboxamido)-3,3-dimethylbutanoyl)-4-hydroxypyrrolidine-2-carboxamide] | 7.25 | 170 nM | 8.52 | < 5.70 | 63 nM | > 2000 nM | 8.74 | 9 nM |
| COc1ccc(C(N)=O)c(-c2c(Cl)c(F)cc3c2[C@H](C)[C@@](CN[C@H]2CC[C@H](C(=O)NCCOCCOCCOCCNC(=O)COc4cc(-c5scnc5C)ccc4CNC(=O)[C@@H]4C[C@@H](O)CN4C(=O)[C@@H](NC(=O)C4(F)CC4)C(C)(C)C)CC2)(c2ccccc2)O3)c1F (atropisomer, axis not shown) [Example 40, (2S,4R)-N-(2-((1-((1S,4r)-4-((((2S,3S,4S)-4-(6-carbamoyl-2-fluoro-3-methoxyphenyl)-5-chloro-6-fluoro-3-methyl-2-phenyl-2,3-dihydrobenzofuran-2-yl)methyl)amino)cyclohexyl)-1,15-dioxo-5,8,11-trioxa-2,14-diazahexadecan-16-yl)oxy)-4-(4-methylthiazol-5-yl)benzyl)-1-((S)-2-(1-fluorocyclopropane-1-carboxamido)-3,3-dimethylbutanoyl)-4-hydroxypyrrolidine-2-carboxamide] | 6.80 | 410 nM | 8.33 | < 4.70 | 1860 nM | > 20000 nM | 7.33 | 20 nM |
| COc1ccc(C(N)=O)c(-c2c(Cl)c(F)cc3c2[C@H](C)[C@@](CN[C@H]2CC[C@H](C(=O)N4CCC(OC5CCN(C(=O)CCC(=O)N[C@H](C(=O)N6C[C@H](O)C[C@H]6C(=O)N[C@@H](C)c6ccc(-c7scnc7C)cc6)C(C)(C)C)CC5)CC4)CC2)(c2ccccc2)O3)c1F (atropisomer, axis not shown) [Example 41, (2S,4R)-1-((S)-2-(4-(4-((1-((1S,4r)-4-((((2S,3S,4S)-4-(6-carbamoyl-2-fluoro-3-methoxyphenyl)-5-chloro-6-fluoro-3-methyl-2-phenyl-2,3-dihydrobenzofuran-2-yl)methyl)amino)cyclohexane-1-carbonyl)piperidin-4-yl)oxy)piperidin-1-yl)-4-oxobutanamido)-3,3-dimethylbutanoyl)-4-hydroxy-N-((S)-1-(4-(4-methylthiazol-5-yl)phenyl)ethyl)pyrrolidine-2-carboxamide] | 7.10 | 270 nM | 8.64 | < 5.70 | 310 nM | > 2000 nM | 7.96 | 27 nM |
| CN[C@@H](C)C(=O)N[C@H](C(=O)N1C[C@@H](NCC(=O)N[C@H]2CC[C@H](NC(=O)[C@H]3CC[C@H](NC[C@]4(c5ccccc5)Oc5cc(F)c(Cl)c(-c6c(C(N)=O)ccc(OC)c6F)c5[C@@H]4C)CC3)CC2)C[C@H]1C(=O)N[C@@H]1CCCc2ccccc21)C1CCCCC1 (atropisomer, axis not shown) [Example 44, (2S,4S)-4-((2-(((1S,4S)-4-((1S,4S)-4-((((2S,3S,4S)-4-(6-carbamoyl-2-fluoro-3-methoxyphenyl)-5-chloro-6-fluoro-3-methyl-2-phenyl-2,3-dihydrobenzofuran-2-yl)methyl)amino)cyclohexane-1-carboxamido)cyclohexyl)amino)-2-oxoethyl)amino)-1-((S)-2-cyclohexyl-2-((S)-2-(methylamino)propanamido)acetyl)-N-((R)-1,2,3,4-tetrahydronaphthalen-1-yl)pyrrolidine-2-carboxamide] | 6.20 | 670 nM | 8.64 | < 5.70 | 1300 nM | > 2000 nM | 8.72 | 2800 nM |
